Values after ≈ are worked out from the molar mass of the structure shown.
Tests used:
[1] = test system: Mouse lymphoma cell line P388; assay: In vitro anti-proliferative activity against mouse tumor cell lines, Test Method 2 (P388); type: cell-based; settings: P388, 48 hours, 37° C.
Protocol: (§1) In vitro anti-proliferative activity against mouse tumor cell lines
(§2) 1. Mouse lymphoma cell line P388 or mouse sarcoma 180 is suspended in RPMI1640 medium supplemented with 10% fetal bovine serum and 2 μM 2-hydroxyethyl disulfide to a concentration of 10^5 cells/ml. Test compounds are serially diluted with the same medium.
(§3) 2. 0.5 ml of the cell suspension thus obtained is admixed with 0.5 ml of the medium or the test compound solution, and the mixture is incubated in a 5% CO2 -incubator at 37° C. for 48 hours. The incubation is carried out in glass culture tubes.
(§4) 3. At the end of incubation, the number of the cells in each tube is counted with a Coulter counter (Model ZB, Coulter Electronics), and the growth inhibition percent (%) is calculated from the same equation as in Test Method 1.
(§5) 4. The IC50 value is obtained as in Test Method I.

mouse sarcoma 180 = assay: In vitro anti-proliferative activity against mouse tumor cell lines, Test Method 2 (sarcoma 180); type: cell-based; settings: Sarcoma 180, 48 hours, 37° C.
Protocol: as §1, §2, §3, §4, §5

T24 = assay: In vitro anti-proliferative activity against human tumor cell lines (T24); type: cell-based; settings: T-24, T24, Bladder trasitional-cell carcinoma, 72 hours
Protocol: (§6) In vitro anti-proliferative activity against human tumor cell lines
(§7) Test Compound: 5-ethynyl-1-β-D-ribofuranosylimidazole-4-carboxamide
(§8) A variety of human tumor cell lines are suspended in media specified according to the species of the cell lines to predetermined cell concentrations as shown in the following Table.
(§9) 1 ml of the resulting cell suspension is seeded into each well of a 24 multi-well plate and incubated in a 5% CO2 -incubator at 37° C. for 24 hours. The culture medium is then replaced by a medium containing no test compound or by an appropriate amount of a serially diluted test compound solution. […] The number of the cells in each well is counted with a Coulter counter (Model ZB, Coulter Electronics), and the growth inhibition percent (%) of the cells at each concentration of a test compound is determined by the following equation: [formula] Tx: Number of the cells in a well containing a test compound as counted upon completion of the incubation (cells/ml) […] Cx: Number of the cells in a well containing no test compound as counted upon completion of the incubation (cells/ml)
(§10) Co: Number of the cells in a well containing no test compound as counted at the initiation of the incubation (cells/ml) […]

HEp-2 = assay: In vitro anti-proliferative activity against human tumor cell lines (HEp-2); type: cell-based; settings: HEp-2, Laryngeal carcinoma, 72 hours
Protocol: as §6, §7, §8, §9, §10

PC-3 = assay: In vitro anti-proliferative activity against human tumor cell lines (PC-3); type: cell-based; settings: PC-3, Prostate adenocarcinoma, 72 hours
Protocol: as §6, §7, §8, §9, §10

[2] = test system: human gastric cancer cells, 4-1ST; assay: In vivo antitumor activity against human gastric cancer cells, 4-1ST, subcutaneously implanted into nude mice; settings: for Body weight / T/C (%) / Tumor growth rate (Rt): 125 mg/kg i.v. days 10, 14, 18
Protocol: In vivo antitumor activity against human gastric cancer cells, 4-1ST, subcutaneously implanted into nude mice
Human gastric cancer cells, 4-1ST(ca. 8 mm^3), are subcutaneously implanted at the ventral site of nude mice (BALB/c-nu/nu, female, 5 weeks old). Ten days after the implantation when the tumor volume reaches 150 to 300 mm^3, the mice are divided into groups (6 mice/group), and the treatment with a test drug was started.
5-Ethynyl-1-β-D-ribofuranosylimidazole-4-carboxamide is dissolved in distilled water and intravenously administered to the mice at a dose of 125 mg/kg on days 10, 14 and 18 after the implantation of the tumor, the volume of the drug solution being 0.1 ml per 10 g of the body weight of the mouse.
Each mouse is weighed, and width (a mm) and length (b mm) of the tumor thereof are measured twice a week to determine the tumor volume (A mm^3) from the following equation: […]
Subsequently, the tumor growth rate (R) is determined as follows on the basis of the tumor volume (A10) on day 10 after the implantation of the tumor cells:
R: Tumor growth rate after a predetermined period from the tumor implantation
A: Tumor volume after a predetermined period from the tumor implantation
A10 : Tumor volume as determined 10 days after the tumor implantation
T/C (%) is further obtained from the following equation by comparison between the tumor growth rate in the test group (Rt) and that in the control group (Rc):
Test group: 125 mg/kg of the drug was intravenously administered on days
10, 14 and 18 after the tumor implantation.

[3] = day 22, * = P < 0.05 vs control
[4] = day 25, * = P < 0.05 vs control

C#Cc1c(C(N)=O)ncn1[C@@H]1O[C@H](CO)[C@@H](O)[C@H]1O [5-ethynyl-1-β-D-ribofuranosylimidazole-4-carboxamide]
IC50 [1]: 0.16 µg/mL (≈ 0.599 µM)
IC50 (mouse sarcoma 180): 0.1 µg/mL (≈ 0.374 µM)
IC50 (T24): 0.37 µg/mL (≈ 1.38 µM)
IC50 (HEp-2): 0.47 µg/mL (≈ 1.76 µM)
IC50 (PC-3): 0.8 µg/mL (≈ 2.99 µM)
antitumor activity ([2]; 125 mg/kg every 4 days 3 times in total, i.v.): remarkable antitumor activity
Body weight ([2]; day 10 after implantation): 20 g
T/C (%) ([2]; day 10 after implantation): 100%
Tumor growth rate (Rt) ([2]; day 10 after implantation): 1.0
Body weight ([2]; day 14): 21 g
T/C (%) ([2]; day 14): 67%
Tumor growth rate (Rt) ([2]; day 14): 3.0
Body weight ([2]; day 17): 21 g
T/C (%) ([2]; day 17): 67%
Tumor growth rate (Rt) ([2]; day 17): 5.1
Body weight ([2]; day 22): 22 g
T/C (%) [2, 3]: 60%
Tumor growth rate (Rt) [2, 3]: 8.0
Body weight ([2]; day 25): 23 g
T/C (%) [2, 4]: 63%
Tumor growth rate (Rt) [2, 4]: 12
Body weight ([2]; day 28): 23 g
T/C (%) ([2]; day 28): 67%
Tumor growth rate (Rt) ([2]; day 28): 16
Body weight ([2]; day 31): 24 g
T/C (%) ([2]; day 31): 71%
Tumor growth rate (Rt) ([2]; day 31): 20
Body weight ([2]; day 35): 23 g
T/C (%) ([2]; day 35): 77%
Tumor growth rate (Rt) ([2]; day 35): 30

— US5059590A, “Imidazole derivatives, process for production thereof, and use thereof” (Yamasa Shoyu Kabushiki Kaisha, priority 1988, dated 1991)
